Test results taken from PubChem BioAssay (NCI).
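Each compound was tested at five concentrations against cells in 96-well plates for 48 hours. Here, GI50 denotes the concentration required for 50% inhibition of growth. At the TGI there is no net growth.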

Assays:
Test in all cases: NCI-60 cell line screen, 48 h
IGROV1 ovarian = tested on: IGROV1 ovarian
LOX IMVI melanoma = tested on: LOX IMVI melanoma
OVCAR-8 ovarian = tested on: OVCAR-8 ovarian
SF-539 CNS = tested on: SF-539 CNS
SR leukemia = tested on: SR leukemia
786-0 renal = tested on: 786-0 renal
OVCAR-5 ovarian = tested on: OVCAR-5 ovarian
PC-3 prostate = tested on: PC-3 prostate
CCRF-CEM leukemia = tested on: CCRF-CEM leukemia
DU-145 prostate = tested on: DU-145 prostate

Row | SMILES | GI50 (IGROV1 ovarian) [nM] | TGI (IGROV1 ovarian) [µM] | GI50 (LOX IMVI melanoma) [nM] | TGI (LOX IMVI melanoma) [µM] | GI50 (OVCAR-8 ovarian) [nM] | TGI (OVCAR-8 ovarian) [µM] | GI50 (SF-539 CNS) [nM] | TGI (SF-539 CNS) [µM] | GI50 (SR leukemia) [nM] | TGI (SR leukemia) [µM] | GI50 (786-0 renal) [nM] | TGI (786-0 renal) [µM] | GI50 (OVCAR-5 ovarian) [nM] | TGI (OVCAR-5 ovarian) [µM] | GI50 (PC-3 prostate) [nM] | TGI (PC-3 prostate) [µM] | GI50 (CCRF-CEM leukemia) [nM] | TGI (CCRF-CEM leukemia) [µM] | GI50 (DU-145 prostate) [nM] | TGI (DU-145 prostate) [µM]
1 | C#C[C@]1(O)CC[C@H]2[C@@H]3CC=C4c5nc(Nc6ccccn6)sc5CC[C@]4(C)[C@H]3CC[C@@]21C | 2270 | 10.9 | 1290 | 2.59 | 1770 | 7.89 | 185 | 0.744 | 542 | 3.24 | 389 | 1.69 | 1650 | 4.44 | 489 | 3.99 | 482 | 4.18 | 2160 | 9.16
2 | CC1(C)CCC(C)(C)c2cc(C(=O)Nc3ccc(C(=O)O)cc3)ccc21 |  | 63.7 |  | > 58.2 |  | > 88.5 |  | 30.3 |  | > 81.9 |  | > 56.5 |  | > 100 |  | 51.7 |  | > 80.8 |  | > 73.6
3 | N#Cc1ccc(-c2nc(C#N)c(N)o2)cc1 |  | > 10 |  | > 10 |  | > 10 |  | > 10 |  | > 10 |  | > 10 |  |  |  | > 10 |  | > 10 |  | > 10
4 | CC1(C)N=C(N)N=C(N)N1c1ccc(CCc2ccccc2)c(Cl)c1 | 66.8 | 15.7 | 42.6 | 13.5 | 89.7 | 13.6 | 131 | 12.4 | 56.2 | 18.7 | 179 | 14.6 | 190 | 19.7 | 91.6 | 12.1 | 59.7 | 15.3 | 91.1 | 15.8
5 | Fc1cccc(COc2ccc(Nc3ncnc4sc(-c5ccco5)cc34)cc2Cl)c1 | > 25000 | > 25 | > 25000 | > 25 | > 25000 | > 25 | > 25000 | > 25 | > 25000 | > 25 | > 25000 | > 25 | > 25000 | > 25 | > 25000 | > 25 | > 25000 | > 25 | > 25000 | > 25
6 | COc1ccc(C(=O)N2c3ccccc3Sc3ccccc32)c(F)c1 | 808 | > 100 | 726 | > 100 | 2200 | > 100 | 409 | 3.36 | 380 | > 100 | 675 | > 100 | 3660 | > 100 | 407 | > 100 | 522 | > 100 | 1400 | > 100
7 | CC1=C(C(=O)NC2CCCCC2)CC(C(=O)NC2CCCCC2)=C(C)N1 |  | > 100 |  | > 100 |  |  |  | > 100 |  | > 100 |  | > 100 |  | > 100 |  | > 100 |  | > 100 |  | > 100
8 | COc1cc(-c2csc(NC(=O)c3cc(C(F)(F)F)cc(C(F)(F)F)c3)n2)cc(OC)c1OC | 4370 | > 100 | 2920 | > 100 | 2770 | > 100 | 3350 | > 100 | 2670 | 11.6 | 3160 | > 100 | 3940 | > 100 | 1730 | 7.35 | 2830 | > 100 | 3620 | > 100
9 | Nc1cc2c3c(cccc3c1)NC2=O |  | > 100 |  | > 100 |  | > 100 |  | > 100 |  | > 100 |  | > 100 |  | > 100 |  | > 100 |  | > 100 |  | > 100
10 | C[C@]12CC[C@@H]3c4ccc(O)c([N+](=O)[O-])c4CC[C@H]3[C@@H]1CC[C@@H]2NS(=O)(=O)c1ccc(C(F)(F)F)cc1 | 2120 | 4.68 | 1670 | 3.07 | 2460 | 8.3 | 1770 | 3.39 | 1650 | 4.14 | 2050 | 4.35 | 1810 | 3.72 | 1650 | 4 | 2340 | 7.95 | 2630 | 7.11
11 | Cc1cccc(NC(=O)c2sc3nc4c(cc3c2N)CCCC4)c1C | 547 | > 100 | 598 | > 100 | 754 | > 100 | 272 | 1.2 | 276 | > 100 | 532 | > 100 | 1790 | > 100 | 468 | > 100 | 375 | > 100 | 454 | > 100
12 | C/C(=N\O)c1ccc(Nc2cc(-n3nnc4ccccc43)nc3ccccc23)cc1 | 12900 | 42.5 | 3440 | 13.5 | 5650 | 18.3 | 19000 | 44.7 | 18700 | 74.9 | 4890 | 13.3 | 8490 | > 37.3 | 4500 | 20.5 | 2750 | 30.3 | 7700 | 30
13 | CC1(C)O[C@H]2OC3CCC(=O)CC3(O)[C@H]2O1 (some centres not stated) |  | > 100 |  | > 100 |  | > 100 |  | > 100 |  | > 100 |  | > 100 |  | > 100 |  | > 100 |  | > 100 |  | > 100
14 | C[n+]1cc2c3c(ccc2c2ccc4cc5c(cc4c21)OCO5)OCO3 | 1180 | 2.48 | 171 | 0.411 | 326 | 1.4 | 1420 | 3.02 | 258 |  | 1020 | 2.26 | 1160 | 2.42 | 668 | 2.08 | 217 | 1.15 | 726 | 1.96
